Key:
[1] = tested on: IFN-γ, TNF-α, IL4, IL-6 and IL-10 in lung supernatants; assay: Lung cytokine response (ELISA of lung supernatants) in P. aeruginosa lung infection in rats; assay type: in vivo, Lewis rat; design: Lung cytokine responses (Mean + SD): IL-4 / Lung cytokine responses (Mean + SD): IL-6 / Lung cytokine responses (Mean + SD): IL-10 / Lung cytokine responses (Mean + SD): IFN-gamma / Lung cytokine responses (Mean + SD): TNF-alpha: unit not given here
Procedure: The bacterial strain, Pseudomonas aeruginosa, used in the study is CF86/57388A (1997), which is isolated from a cystic fibrosis patient and keeps stable mucoid phenotype. The rat strain used in the study is Lewis rat (7 weeks old, female) imported from Germany. Both bacterial challenge and drug administration were done intratracheally. All rats were challenged with mucoid P. aeruginosa in alginate. The concentration of the bacteria was 1×10^10 CFU/ml and each rat received 0.1 ml (1×10^9 CFU) bacteria. Control group received placebo (sterile saline, 0.1 ml/rat) twice at hour 0 and 3, and the Novispirin G10 group received the peptide (0.1 mg/ml, 0.1 ml/rat) twice at hour 0 and 3. The animals were sacrificed on day 3, 5, 7 and 10 after challenge for parameters evaluation. Supernatants of the lungs were harvested from days 3, 5 and 7 after lung infection and treatment. Interferon-gamma (IFN-γ), tumor necrosis factor-alpha (TNF-α), interleukin4 (IL4), IL-6 and IL-10 were measured by using ELISA kits (Nordic BioSite, Sweden).

[2] = tested on: Pseudomonas aeruginosa (ATCC 27853); assay: Pseudomonas aeruginosa wound infection in pigs (wound chambers, 4 hour time course); assay type: in vivo, Göttinger minipigs
Procedure: The bacterial strain, Pseudomonas aeruginosa, used in the study was ATCC 27853. The amino acid sequence of Novispirin G10 is shown in SEQ ID NO: 16.
Novispirin G10 was diluted in 0.01% acetic acid containing 0.1% BSA with a final concentration of 1 mg (substrate)/ml (solution); 100 micrograms/ml and 10 micrograms/ml. The carrier control was 0.01% acetic acid containing 0.1% BSA.
The chambers are made out of titanium, have a screw top cover (also made out of titanium) and have an inner diameter of 25 mm.
After providing permission to conduct experiments with vertebrates in compliance with German animal protection laws, Göttinger minipigs (Fa. Ellegaard, Dalmose, Denmark, male, No. 86242 and 86260, 12 months old, 35 kg weight) were chosen to implant the chambers on. The pigs were kept at least 2 weeks in the stable, fed a standard porcine diet and housed at 20° C. to 30° C. in an atmosphere of approximately 65% humidity with a light cycle of 12 hours on and 12 hours off. The pig used for this study appeared during the experiments clinically healthy—rectal temperature and body weight remained normal over the observed period.
Before wounding the skin was surgically prepared, washed with soap and desinfected with Octenisept (S&M, Norderstedt, Germany) for five minutes. Twelve wound chambers were implanted on the pigs back and flank between the base of the scapula and the iliac crest. The wounds were spaced a minimum of 5 cm apart and were created in four rows parallel to the columna vertebralis, two rows on each side of the columna vertebralis. The exact size and shape of the wounds were ensured by a special custom-made “round-scalpel”, which has a diameter of 33 mm. Epidermal, dermal subcutaneous tissue was removed, possible bleedings stanched by bipolar diathermy. The chambers were placed with an additionally secant v-incision at positions 6 respectively 12 o'clock on the musculus thoracicus longus fascia and the muscle fascia of the external ripcage muscles. The incisions were sutured with 4-0 Prolene followed by the closure of the chambers. Povidone-iodine salve (Betaisodonna-salve, Mundipharma, Austria) was smothered on the wound edges. The chambers were dressed with paraffin gauze (Jelonet, Smith & Nephew, Lohfelden, Germany) and sterile compresses (Johnson & Johnson, Gargrave, UK). Dressings were changed every second day under sedation (as described above).
Bacterial Background of each chamber was measured every second day to detect potential contamination. One contaminated chamber was detected. Eight days post operation all chambers were inoculated with bacteria.
For bacteria progeny, Pseudomonas aeruginosa (ATCC 27853) was plated on LB-Agar plates and incubated at 37° C. for 18 hours. One colony was picked, and transferred into 3 ml LB-Medium and grown over night at 37° C. at 300 rpm. The over night culture was diluted in 50 ml fresh LB-Medium and incubated for 2.5 hours at 37° C. at 200 rpm.
Bacteria were centrifuged at 4000 rpm, 5 min (Mergafuge 1.0 R, Heraeus, Hanau, Germany), and the pellet was resuspended in PBS. The amount of containing bacteria was determined by OD600 nm-measurement and calculated as follows: Colony forming Unit/ml=OD600 nm×2.5×10^8 (bacteria)
To inoculate one chamber, 5×10^8CFU were used.
The establishment of the infection was proven by the measurment of bacterial counts per chamber. All inoculated chambers were infected after two days.
At fourth day post infection, the antimicrobial effect of the testing substrate was measured in a time course of 4 hours in duration. Each chamber was cleaned before starting the time course, wound fluid was selected and blood clots were discarded. Before starting the time course each chamber was inoculated again with 1×10^8 CFU Pseudomonas aeruginosa to get an equal bacterial amount for each chamber. One ml of the prepared samples with diluted test substrate and carrier control were applied in selected chambers.
Each chamber was rinsed with the applied solution several times. […]

[3] = tested on: P. acnes (erythromycin sensitive); assay: MIC on Propionebacterium acnes, erythromycin sensitive strain; assay type: cell-based
Procedure: Minimal Inhibitory Concentration (MIC) of Novispirin G10 (SEQ ID NO: 16) was evaluated against P. acnes. Two strains were tested—one of which is clinically resistant to clindamycin and erythromycin.

## Novispirin G10: novispirin antimicrobial polypeptide; amino acid sequence shown in SEQ ID NO: 16 (KNLRRIIRKGIHIIKKYG; Synthetic antimicrobial peptide)
[1]; Day 3, lung supernatant
  Lung cytokine responses (Mean + SD): IFN-gamma: 65.3 ± 28.6
  Lung cytokine responses (Mean + SD): IL-4: 34.5 ± 4.5
  Lung cytokine responses (Mean + SD): IL-6: 74.1 ± 10.0
  Lung cytokine responses (Mean + SD): IL-10: 51.7 ± 2.6
  Lung cytokine responses (Mean + SD): TNF-alpha: 159.2 ± 23.8
[1]; Day 5, lung supernatant
  Lung cytokine responses (Mean + SD): IFN-gamma: 116.6 ± 42.1
  Lung cytokine responses (Mean + SD): IL-4: 45.3 ± 5.9
  Lung cytokine responses (Mean + SD): IL-6: 65.2 ± 11.1
  Lung cytokine responses (Mean + SD): IL-10: 57.8 ± 7.6
  Lung cytokine responses (Mean + SD): TNF-alpha: 128.1 ± 19.0
[1]; Day 7, lung supernatant
  Lung cytokine responses (Mean + SD): IFN-gamma: 79.9 ± 16.2
  Lung cytokine responses (Mean + SD): IL-4: 37.3 ± 5.9
  Lung cytokine responses (Mean + SD): IL-6: 61.5 ± 11.0
  Lung cytokine responses (Mean + SD): IL-10: 51.3 ± 2.9
  Lung cytokine responses (Mean + SD): TNF-alpha: 121.8 ± 19.6
[1]; day 3, early phase of the infection
  All 5 kinds of cytokine levels compared to the control group: significantly lower
[2]; 1 mg applied (1 ml of 1 mg/ml), 0.05 hours
  Mean CFU per ml sample volume (chamber fluid): 667 CFU/ml
[2]; 1 mg applied (1 ml of 1 mg/ml), 1 hour
  Mean CFU per ml sample volume (chamber fluid): 1933 CFU/ml
[2]; 1 mg applied (1 ml of 1 mg/ml), 2 hours
  Mean CFU per ml sample volume (chamber fluid): 1167 CFU/ml
[2]; 1 mg applied (1 ml of 1 mg/ml), 3 hours
  Mean CFU per ml sample volume (chamber fluid): 517 CFU/ml
[2]; 1 mg applied (1 ml of 1 mg/ml), 4 hours
  Mean CFU per ml sample volume (chamber fluid): 733 CFU/ml
[2]; 10 micrograms applied (1 ml of 10 micrograms/ml), 0.05 hours
  Mean CFU per ml sample volume (chamber fluid): 413869 CFU/ml
[2]; 10 micrograms applied (1 ml of 10 micrograms/ml), 1 hour
  Mean CFU per ml sample volume (chamber fluid): 1225733 CFU/ml
[2]; 10 micrograms applied (1 ml of 10 micrograms/ml), 2 hours
  Mean CFU per ml sample volume (chamber fluid): 34811 CFU/ml
[2]; 10 micrograms applied (1 ml of 10 micrograms/ml), 3 hours
  Mean CFU per ml sample volume (chamber fluid): 9612 CFU/ml
[2]; 10 micrograms applied (1 ml of 10 micrograms/ml), 4 hours
  Mean CFU per ml sample volume (chamber fluid): 17322 CFU/ml
[2]; 100 micrograms applied (1 ml of 100 micrograms/ml), 0.05 hours
  Mean CFU per ml sample volume (chamber fluid): 7383 CFU/ml
[2]; 100 micrograms applied (1 ml of 100 micrograms/ml), 1 hour
  Mean CFU per ml sample volume (chamber fluid): 138181 CFU/ml
[2]; 100 micrograms applied (1 ml of 100 micrograms/ml), 2 hours
  Mean CFU per ml sample volume (chamber fluid): 167413 CFU/ml
[2]; 100 micrograms applied (1 ml of 100 micrograms/ml), 3 hours
  Mean CFU per ml sample volume (chamber fluid): 11661 CFU/ml
[2]; 100 micrograms applied (1 ml of 100 micrograms/ml), 4 hours
  Mean CFU per ml sample volume (chamber fluid): 2467 CFU/ml
[3]
  Minimal Inhibitory Concentration (MIC): 2

— US20050245452A1, “Pharmaceutical use of novispirins” (Novozymes A/S, priority 2004, published 2005)
